The experiment deals with NaV 1.8 channel (Homo sapiens, UniProt Q9Y5Y9). The experiment can be described thus: Activity against NaV 1.8 channel (optical membrane potential assay). The experiment is classed as cell-based. As for the experimental part:
Compounds of the invention are useful as antagonists of voltage-gated sodium ion channels. Antagonist properties of test compounds were assessed as follows. Cells expressing the NaV of interest were placed into microtiter plates. After an incubation period, the cells were stained with fluorescent dyes sensitive to the transmembrane potential. The test compounds were added to the microtiter plate. The cells were stimulated with either a chemical or electrical means to evoke a NaV dependent membrane potential change from unblocked channels, which was detected and measured with trans-membrane potential-sensitive dyes. Antagonists were detected as a decreased membrane potential response to the stimulus. The optical membrane potential assay utilized voltage-sensitive FRET sensors described by Gonzalez and Tsien (See, Gonzalez, J. E. and R. Y. Tsien (1995) “Voltage sensing by fluorescence resonance energy transfer in single cells” Biophys J 69(4): 1272-80, and Gonzalez, J. E. and R. Y. Tsien (1997) “Improved indicators of cell membrane potential that use fluorescence resonance energy transfer” Chem Biol 4(4): 269-77) in combination with instrumentation for measuring fluorescence changes such as the Voltage/Ion Probe Reader (VIPR®) (See, Gonzalez, J. E., K. Oades, et al. (1999) “Cell-based assays and instrumentation for screening ion-channel targets” Drug Discov Today 4(9): 431-439).
24 hours before the assay on VIPR, CHO cells endogenously expressing a NaV1.2 type voltage-gated NaV are seeded in 96-well poly-lysine coated plates at 60,000 cells per well. Other subtypes are performed in an analogous mode in a cell line expressing the NaV of interest. • 1) On the day of the assay, medium is aspirated and cells are washed twice with 225 μL of Bath Solution #2 (BS#2). • 2) A 15 uM CC2-DMPE solution is prepared by mixing 5 mM coumarin stock solution with 10% Pluronic 127 1:1 and then dissolving the mix in the appropriate volume of BS#2. • 3) After bath solution is removed from the 96-well plates, the cells are loaded with 80 μL of the CC2-DMPE solution. Plates are incubated in the dark for 30 minutes at room temperature. • 4) While the cells are being stained with coumarin, a […] solution in BS#2 is prepared. In addition to DiSBAC2(3), this solution should contain 0.75 mM ABSCl and […] (prepared from 10 mM EtOH stock, Sigma #V-5754). • 5) After 30 minutes, CC2-DMPE is removed and the cells are washed twice with 225 μL of BS#2. As before, the residual volume should be 40 μL. • 6) Upon removing the bath, the cells are loaded with 80 μL of the DiSBAC2(3) solution, after which test compound, dissolved in DMSO, is added to achieve the desired test concentration to each well from the drug addition plate and mixed thoroughly. The volume in the well should be roughly 121 μL. The cells are then incubated for 20-30 minutes. • 7) Once the incubation is complete, the cells are ready to be assayed on VIPR® with a sodium add back protocol. 120 μL of Bath solution #1 is added to stimulate the NaV dependent depolarization. […] was used as an antagonist positive control for block of the NaV channel.
Data are analyzed and reported as normalized ratios of background-subtracted emission intensities measured in the 460 nm and 580 nm channels. Background intensities are then subtracted from each assay channel. Background intensities are obtained by measuring the emission intensities during the same time periods from identically treated assay wells in which there are no cells. The response as a function of time is then reported as the ratios obtained using the following formula: […]
The data is further reduced by calculating the initial (Ri) and final (Rf) ratios. These are the average ratio values during part or all of the pre-stimulation period, and during sample points during the stimulation period. The response to the stimulus R=Rf/Ri is then calculated. […]
NaV 1.8 channel, sequence (Q9Y5Y9 whole entry): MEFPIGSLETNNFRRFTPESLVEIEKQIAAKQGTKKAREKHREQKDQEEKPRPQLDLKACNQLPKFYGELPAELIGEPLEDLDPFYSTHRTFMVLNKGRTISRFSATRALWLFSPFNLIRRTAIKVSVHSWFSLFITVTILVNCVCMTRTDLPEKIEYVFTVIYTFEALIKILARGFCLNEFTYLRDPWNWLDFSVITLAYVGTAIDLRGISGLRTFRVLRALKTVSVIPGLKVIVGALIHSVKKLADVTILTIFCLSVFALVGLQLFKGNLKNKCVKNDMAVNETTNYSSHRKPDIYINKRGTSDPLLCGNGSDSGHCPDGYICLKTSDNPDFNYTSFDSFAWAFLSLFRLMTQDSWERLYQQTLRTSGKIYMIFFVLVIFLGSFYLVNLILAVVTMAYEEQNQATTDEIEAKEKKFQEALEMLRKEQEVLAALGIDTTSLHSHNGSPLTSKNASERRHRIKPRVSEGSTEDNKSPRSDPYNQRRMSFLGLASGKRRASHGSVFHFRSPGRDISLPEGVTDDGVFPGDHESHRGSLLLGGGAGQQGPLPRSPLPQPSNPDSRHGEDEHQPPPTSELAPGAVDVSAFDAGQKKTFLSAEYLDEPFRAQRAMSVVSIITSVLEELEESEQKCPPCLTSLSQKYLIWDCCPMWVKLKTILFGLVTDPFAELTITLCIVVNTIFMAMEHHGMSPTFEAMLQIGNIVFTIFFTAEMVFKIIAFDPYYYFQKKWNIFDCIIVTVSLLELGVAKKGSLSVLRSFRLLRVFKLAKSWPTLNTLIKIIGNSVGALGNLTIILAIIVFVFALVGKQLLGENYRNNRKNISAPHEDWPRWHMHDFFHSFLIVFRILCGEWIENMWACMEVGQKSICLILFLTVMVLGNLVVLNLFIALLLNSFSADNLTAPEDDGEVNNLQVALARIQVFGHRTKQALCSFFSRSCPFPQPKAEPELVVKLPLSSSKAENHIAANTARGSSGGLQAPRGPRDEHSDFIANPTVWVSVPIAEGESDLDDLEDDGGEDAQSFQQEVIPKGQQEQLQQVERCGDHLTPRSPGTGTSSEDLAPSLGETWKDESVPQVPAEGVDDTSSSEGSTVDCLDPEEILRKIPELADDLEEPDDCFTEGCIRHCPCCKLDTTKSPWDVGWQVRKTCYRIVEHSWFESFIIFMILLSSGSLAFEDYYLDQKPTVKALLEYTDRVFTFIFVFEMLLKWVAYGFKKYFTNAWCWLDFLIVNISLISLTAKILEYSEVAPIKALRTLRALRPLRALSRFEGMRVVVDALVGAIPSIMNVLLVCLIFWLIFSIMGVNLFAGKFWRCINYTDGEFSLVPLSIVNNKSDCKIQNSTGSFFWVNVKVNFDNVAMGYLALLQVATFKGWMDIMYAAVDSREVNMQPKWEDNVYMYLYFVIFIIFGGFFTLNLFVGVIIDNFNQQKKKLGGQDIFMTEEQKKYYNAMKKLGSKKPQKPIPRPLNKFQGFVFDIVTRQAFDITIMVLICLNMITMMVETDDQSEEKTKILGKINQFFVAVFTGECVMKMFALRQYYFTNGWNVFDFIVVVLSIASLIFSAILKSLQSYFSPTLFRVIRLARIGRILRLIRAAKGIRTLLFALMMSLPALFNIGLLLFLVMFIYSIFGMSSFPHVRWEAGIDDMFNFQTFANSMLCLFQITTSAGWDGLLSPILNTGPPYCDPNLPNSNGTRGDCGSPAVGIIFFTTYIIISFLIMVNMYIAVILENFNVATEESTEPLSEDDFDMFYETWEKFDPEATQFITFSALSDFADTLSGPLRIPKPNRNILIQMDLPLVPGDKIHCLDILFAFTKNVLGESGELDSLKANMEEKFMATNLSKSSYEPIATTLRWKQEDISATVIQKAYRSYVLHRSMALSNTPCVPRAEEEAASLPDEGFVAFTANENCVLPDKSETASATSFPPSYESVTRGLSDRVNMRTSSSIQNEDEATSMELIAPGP
As for `O=C(CC1CCOCC1)N1CCN(c2nc(-c3ccccc3O)nc3ccc(F)cc23)CC1` [Example 128, 1-(4-(6-Fluoro-2-(2-hydroxyphenyl)quinazolin-4-yl)piperazin-1-yl)-2-(tetrahydro-2H-pyran-4-yl)ethanone], the IC50 was 2 to 10 µM.
In the case of `CCC(C)(O)C(=O)N1CCN(c2nc(-c3ccccc3O)nc3ccccc23)CC1` (centres unmarked) [Example 129, 2-Hydroxy-1-(4-(2-(2-hydroxyphenyl)quinazolin-4-yl)piperazin-1-yl)-2-methylbutan-1-one] it was above 10 µM; in that of `Cc1ccc2c(N3CCN(C(=O)[C@H](O)Cc4ccccc4)CC3)nc(-c3ccccc3O)nc2c1` [Example 130, (R)-2-Hydroxy-1-{4-[2-(2-hydroxy-phenyl)-7-methyl-quinazolin-4-yl]-piperazin-1-yl}-3-phenylpropan-1-one], above 10 µM.
Consider `Cc1ccc2c(N3CCN(C(=O)[C@@H](O)Cc4ccccc4)CC3)nc(-c3ccccc3O)nc2c1` [Example 131, (S)-2-Hydroxy-1-{4-[2-(2-hydroxy-phenyl)-7-methyl-quinazolin-4-yl]-piperazin-1-yl}-3-phenylpropan-1-one], for which the half-inhibitory concentration (IC50) is above 10 µM.
With `Cc1ccc2c(N3CCN(C(=O)OCc4cccnc4)CC3)nc(-c3ccccc3O)nc2c1` [Example 132, (Pyridin-3-yl)methyl 4-(2-(2-hydroxyphenyl)-7-methylquinazolin-4-yl)piperazine-1-carboxylate] the figure was 2 to 10 µM; with `Cc1ccc2c(N3CCN(C(=O)CCc4ccccn4)CC3)nc(-c3ccccc3O)nc2c1` [Example 133, 1-(4-(2-(2-Hydroxyphenyl)-7-methylquinazolin-4-yl)piperazin-1-yl)-3-(pyridin-2-yl)propan-1-one], 2 to 10 µM.
In the case of `CCCC(O)C(=O)N1CCN(c2nc(-c3ccccc3O)nc3cc(C)ccc23)CC1` (centres unmarked) [Example 134, 2-Hydroxy-1-(4-(2-(2-hydroxyphenyl)-7-methylquinazolin-4-yl)piperazin-1-yl)pentan-1-one] it was 2 to 10 µM; in that of `Cc1ccc2c(N3CCN(C(=O)[C@H](O)CC(C)(C)C)CC3)nc(-c3c(O)cccc3F)nc2c1` [Example 135, (R)-1-(4-(2-(2-Fluoro-6-hydroxyphenyl)-7-methylquinazolin-4-yl)piperazin-1-yl)-2-hydroxy-4,4-dimethylpentan-1-one], below 2 µM; in that of `Cc1ccc2c(N3CCN(C(=O)[C@H](O)CC(C)C)CC3)nc(-c3cc(F)ccc3O)nc2c1` [Example 136, (R)-1-(4-(2-(5-Fluoro-2-hydroxyphenyl)-7-methylquinazolin-4-yl)piperazin-1-yl)-2-hydroxy-4-methylpentan-1-one], above 10 µM.
Take `CC[C@H](O)C(=O)N1CCN(c2nc(-c3ccccc3O)nc3cc(C)ccc23)CC1` [Example 137, (S)-2-Hydroxy-1-(4-(2-(2-hydroxyphenyl)-7-methylquinazolin-4-yl)piperazin-1-yl)butan-1-one]: the 50% inhibitory concentration (IC50) is 2 to 10 µM.
With `Cc1ccc2c(N3CCN(C(=O)[C@@H](O)C(C)(C)C)CC3)nc(-c3c(O)cccc3F)nc2c1` [Example 138, (S)-1-(4-(2-(2-Fluoro-6-hydroxyphenyl)-7-methylquinazolin-4-yl)piperazin-1-yl)-2-hydroxy-3,3-dimethylbutan-1-one] the figure was above 10 µM; with `CC(C)(C)[C@H](O)C(=O)N1CCN(c2nc(-c3ccccc3O)nc3ccc(F)cc23)CC1` [Example 139, (S)-1-(4-(6-Fluoro-2-(2-hydroxyphenyl)quinazolin-4-yl)piperazin-1-yl)-2-hydroxy-3,3-dimethylbutan-1-one], 2 to 10 µM.
In the case of `O=C(OCc1cccc2c1OCO2)N1CCN(c2nc(-c3ccccc3O)nc3ccccc23)CC1` [Example 140, (Benzo[d][1,3]dioxol-7-yl)methyl 4-(2-(2-hydroxyphenyl)quinazolin-4-yl)piperazine-1-carboxylate] it was above 10 µM.
With `Cc1ccc2c(N3CCN(C(=O)[C@@H](O)Cc4cnc[nH]4)CC3)nc(-c3ccccc3O)nc2c1` [Example 141, (S)-2-Hydroxy-1-(4-(2-(2-hydroxyphenyl)-7-methylquinazolin-4-yl)piperazin-1-yl)-3-(1H-imidazol-5-yl)propan-1-one] the figure was above 10 µM.
Turning to `CC(C)C[C@@H](O)C(=O)N1CCN(c2nc(-c3ccccc3O)nc3ccc(C#N)cc23)CC1` [Example 142, 4-[4-((R)-2-Hydroxy-4-methyl-pentanoyl)-piperazin-1-yl]-2-(2-hydroxy-phenyl)-quinazoline-6-carbonitrile], the IC50 was 2 to 10 µM.
With `CC(C)C[C@@H](O)C(=O)N1CCN(c2nc(-c3ccccc3O)nc3ccc(F)cc23)CC1` [Example 143, (R)-1-(4-(6-Fluoro-2-(2-hydroxyphenyl)quinazolin-4-yl)piperazin-1-yl)-2-hydroxy-4-methylpentan-1-one] the figure was 2 to 10 µM.
In the case of `Cc1ccc2c(N3CCN(C(=O)[C@@H](O)CC(C)C)CC3)nc(-c3ccccc3O)nc2c1` [Example 144, (S)-2-Hydroxy-1-(4-(2-(2-hydroxyphenyl)-7-methylquinazolin-4-yl)piperazin-1-yl)-4-methylpentan-1-one] it was 2 to 10 µM.
In the case of `Cc1ccc2c(N3CCN(C(=O)[C@H](O)CC(=O)O)CC3)nc(-c3ccccc3O)nc2c1` [Example 145, (R)-3-Hydroxy-4-(4-(2-(2-hydroxyphenyl)-7-methylquinazolin-4-yl)piperazin-1-yl)-4-oxobutanoic acid], the IC50 is above 10 µM.
In the case of `CC(C)C[C@@H](O)C(=O)N1CCN(c2nc(-c3c(O)cccc3Cl)nc3ccccc23)CC1` [Example 146, (R)-1-(4-(2-(2-Chloro-6-hydroxyphenyl)quinazolin-4-yl)piperazin-1-yl)-2-hydroxy-4-methylpentan-1-one] it was above 10 µM; in that of `Cc1ccc2c(N3CCN(C(=O)[C@H](O)CC(C)C)CC3)nc(-c3c(O)cccc3F)nc2c1` [Example 147, (R)-1-(4-(2-(2-Fluoro-6-hydroxyphenyl)-7-methylquinazolin-4-yl)piperazin-1-yl)-2-hydroxy-4-methylpentan-1-one], 2 to 10 µM.
In the case of `O=C(O[C@@H]1CCOC1)N1CCN(c2nc(-c3ccccc3O)nc3ccc(F)cc23)CC1` [Example 148, (R)-Tetrahydrofuran-3-yl 4-(6-fluoro-2-(2-hydroxyphenyl)quinazolin-4-yl)piperazine-1-carboxylate] it was 2 to 10 µM.
In the case of `Cc1ccc2c(N3CCN(C(=O)O[C@@H]4CCOC4)[C@@H](CO)C3)nc(-c3ccccc3O)nc2c1` [Example 149, (2R)-(R)-Tetrahydrofuran-3-yl 2-(hydroxymethyl)-4-(2-(2-hydroxyphenyl)-7-methylquinazolin-4-yl)piperazine-1-carboxylate] it was above 10 µM.
In the case of `Cc1ccc2c(N3CCN(C(=O)[C@H](O)CC(C)C)CC3)nc(-c3c(C)cccc3O)nc2c1` [Example 150, (R)-2-Hydroxy-1-(4-(2-(2-hydroxy-6-methylphenyl)-7-methylquinazolin-4-yl)piperazin-1-yl)-4-methylpentan-1-one], the IC50 is above 10 µM.
In the case of `CC(=O)C[C@@H](O)C(=O)N1CCN(c2nc(-c3ccccc3O)nc3cc(C)ccc23)CC1` [Example 151, (R)-2-Hydroxy-1-(4-(2-(2-hydroxyphenyl)-7-methylquinazolin-4-yl)piperazin-1-yl)pentan-1,4-dione] it was above 10 µM.
As for `Cc1ccc2c(N3CCN(C(=O)OCc4ccncc4)CC3)nc(-c3ccccc3O)nc2c1` [Example 152, (Pyridin-4-yl)methyl 4-(2-(2-hydroxyphenyl)-7-methylquinazolin-4-yl)piperazine-1-carboxylate], the IC50 is above 10 µM.
On to `CSCCC(O)C(=O)N1CCN(c2nc(-c3ccccc3O)nc3cc(C)ccc23)CC1` (centres unmarked) [Example 153, 2-Hydroxy-1-(4-(2-(2-hydroxyphenyl)-7-methylquinazolin-4-yl)piperazin-1-yl)-4-(methylthio)butan-1-one], for which the IC50 was 2 to 10 µM.

The IC50 is the concentration needed to halve the response being measured.

The record behind these values is patent publication US7928107B2, “Quinazolines useful as modulators of ion channels” (Vertex Pharmaceuticals Incorporated, priority 2004, dated 2011).
